Measured values: ChEMBL document CHEMBL1157539, “Thousands of chemical starting points for antimalarial lead identification” (Nature, 2010)

What follows are compounds tested on Plasmodium falciparum (assay: GSK_TCMDC: Inhibition of Plasmodium falciparum 3D7 in whole erythrocytes, using parasite LDH activity as an index of growth.). Conditions: Plasmodium falciparum, 3D7.
Assay type: functional, organism-based
`Nc1nc(N)c2c(Sc3ccc(F)cc3)cccc2n1` showed an XC50 of 1070 nM.
For `Cc1cc2c3c(N)nc(N)nc3ccc2n1C(C)C`, the XC50 was 8.52 nM.
Compound `O=C(/C=C/c1ccc(Cl)c(Cl)c1)NCCCN1CCC(c2c[nH]c3ccccc23)CC1` has an XC50 of 966 nM.
Compound `CN(C)Cc1ccc(-c2cc3ncnc(Nc4ccc(OCc5cccc(F)c5)c(Cl)c4)c3s2)[nH]1` has an XC50 of 174 nM.
In the case of `Cc1cc(OCCCN2CCCCC2)ccc1NC(=O)COc1ccc(Cl)cc1C(=O)c1cc(C#N)cc(C(F)(F)F)c1`, the XC50 is reported as 1030 nM.
`Cc1cc(NC(=O)c2ccco2)ccc1OC1CCN(Cc2ccc(C#N)cc2)CC1` showed an XC50 of 497 nM.
In the case of `O=C(NCc1ccccc1)OC1CNCCC1c1ccc(C(O)Cc2ccccc2)cc1` (configuration not stated), the XC50 is reported as 576 nM.
Work on `COc1cc(Nc2ccnc3cc(-c4ccncc4)ccc23)cc(OC)c1OC` yielded an XC50 of 1080 nM.
Compound `O=C(/C=C/c1ccccc1Cl)Nc1ccc(Br)c(OCCN2CCN(CCN3CCOCC3)CC2)c1` has an XC50 of 763 nM.
For `CO/C(=C\C=C\c1cc2cc(Cl)c(Cl)cc2[nH]1)C(=O)NCCCN1CCN(c2cccc(O)c2)CC1`, the XC50 was 579 nM.
`O=S(=O)(NCCN1CCCC1)c1ccc(-c2cccc(CNCc3ccc(F)cc3)c2)cc1F` gave an XC50 of 787 nM.
`CC(CNC1CCN(CCn2c(=O)ccc3ccc(F)cc32)CC1)c1ccccc1` (configuration not stated) showed an XC50 of 1270 nM.
In the case of `Cc1cc(=O)c(-c2ccc(OCc3ccc(OC(F)(F)F)cc3)cc2)c(C)[nH]1`, the XC50 is reported as 736 nM.
With `Cc1nc(-c2cccc(NC(C)C(=O)Nc3cc(C(F)(F)F)ccc3N3CCOCC3)c2)cs1` (configuration not stated) the XC50 was 241 nM.
Compound `COc1cc(C)cc(CN2CCC(Cc3ccccc3)CC2)c1O` has an XC50 of 1020 nM.
`Cc1cc(Nc2ccccc2)nc(NCCOc2ccccc2)n1` gave an XC50 of 728 nM.
In the case of `CC1(C)CN(CCC2CCC(NC(=O)/C=C/c3ccc(F)cc3F)CC2)Cc2ccc(C#N)cc21` (configuration not stated), the XC50 is reported as 787 nM.
For `Cc1cc(N2CCOCC2)nc2ccc(NC(=O)c3ccc(Cl)c([N+](=O)[O-])c3)cc12`, the XC50 was 1030 nM.
`COc1ccc(OC)c(CC2c3ccc(Br)c(O)c3CCN2C)c1` (configuration not stated) showed an XC50 of 754 nM.
For `CN1CCC(NC(=O)c2cccc(Nc3cc(Nc4cccc(Br)c4)ncn3)c2)CC1`, the XC50 was 1010 nM.
`Cc1ccc2[nH]c3c(NCCCN(C)C)ncnc3c2c1` showed an XC50 of 650 nM.
Work on `O=C(NC1CCN(Cc2ccccc2)CC1)c1cc(-c2ccncc2)nc2ccc(Cl)cc12` yielded an XC50 of 920 nM.
For `CC(=O)Nc1csc(-c2cnc(/C=C(\C)C[C@@H]3OC[C@H](C[C@@H]4O[C@H]4[C@@H](C)[C@H](C)O)[C@@H](O)[C@H]3O)o2)c1`, the XC50 was 178 nM.
For `COC(=O)c1cccc(CNCc2cccc(-c3csc(-c4nc5ccccc5[nH]4)c3)c2)c1`, the XC50 was 693 nM.
With `CCO[C@H]1CN[C@H](C#Cc2cc3c(Nc4ccc(OCc5cccc(F)c5)c(Cl)c4)ncnc3s2)C1` the XC50 was 939 nM.
For `CC1(C)N=C(N)N=C(N)N1CCc1ccccc1`, the XC50 was 47.4 nM.
Compound `COc1ccccc1-n1ccnc1SCC(=O)Nc1cccc(C(F)(F)F)c1` has an XC50 of 160 nM.
In the case of `N#Cc1cccc(C(=O)NC2CCN(c3ccnc(Nc4ccc(F)cc4)n3)C2)c1` (configuration not stated), the XC50 is reported as 396 nM.
`CCN(CC)CCOc1ccc(N(Cc2ccc(C(C)(C)C)cc2)C(=O)c2ccc(Cc3ccccc3)cc2)cc1OC` gave an XC50 of 773 nM.
In the case of `Cc1cccc2c(/C=C/C(=O)NC3CCC(CCN4CCc5ccc(C#N)cc5CC4)CC3)c[nH]c12` (configuration not stated), the XC50 is reported as 1220 nM.
Work on `CC(Cc1ccc(-c2nc3ccccc3[nH]2)cc1)NCC(O)c1cccc(C(F)(F)F)c1` (configuration not stated) yielded an XC50 of 352 nM.
For `CN1CCC(NCc2ccc(-c3ccc(S(=O)(=O)NC4CCC4)s3)cc2)CC1`, the XC50 was 846 nM.
With `O=C(Nc1cccc(CN2CCCN(CC3CCCCC3)CC2)c1)c1cc2ccccc2s1` the XC50 was 814 nM.
For `CCCCCCCNCCNc1cc(C)nc2ccccc12`, the XC50 was 386 nM.
Compound `CCCC1N=C(N)N=C(N)N1c1cccc(C(F)(F)F)c1` (configuration not stated) has an XC50 of 594 nM.
In the case of `Cc1nn(-c2cccc(C(F)(F)F)c2)c2sc(C(=O)NC3CCN(C(C)C)CC3)cc12`, the XC50 is reported as 898 nM.
In the case of `Cc1nc2ccc(S(=O)(=O)Nc3ccc(C(=O)N[C@@H](CCC(=O)O)C(=O)O)cc3)cc2c(=O)[nH]1`, the XC50 is reported as 1010 nM.
With `Cc1ccc(C(=O)Nc2ccc(-c3nc4ccccc4[nH]3)cc2)cc1S(=O)(=O)N1CCOCC1` the XC50 was 1210 nM.
Compound `c1ccc(CNc2nc(NCCc3c[nH]cn3)nc(N3CCCC4CCCCC43)n2)cc1` (configuration not stated) has an XC50 of 834 nM.
Work on `CC(Cc1ccc(CNC(=O)c2ccc(CC(C)NCCc3cccc(Cl)c3)cc2)cc1)NCCc1cccc(Cl)c1` (configuration not stated) yielded an XC50 of 696 nM.
For `N#Cc1cnc2cc(-c3cnc(CNCCN4CCOCC4)s3)ccc2c1Nc1ccc(Oc2ccccc2)cc1`, the XC50 was 726 nM.
In the case of `Cc1cc(CNC(c2ccccc2)C2CCC2)cc(C)c1O` (configuration not stated), the XC50 is reported as 890 nM.
With `CC(Cc1ccc(S(=O)(=O)N(C(C)C)C(C)C)cc1)NCC(O)c1cccc(C(F)(F)F)c1` (configuration not stated) the XC50 was 685 nM.
`COc1cc(C=CC(=O)N2CCN(Cc3cccc(C)c3)CC2)ccc1OCc1c(C)noc1C` was tested, and the XC50 was 1030 nM.
Compound `O=C(NCCN1CCCC1)N1CCCN(c2ncnc3cc(-c4ccc(F)cc4)sc23)CC1` has an XC50 of 902 nM.
`CCOc1ccc2c(=NN=Cc3cccc(OC)c3OC)cc(C)[nH]c2c1` was tested, and the XC50 was 898 nM.
`Cc1onc(-c2ccccc2)c1-c1nc(NC2CCCC(C)C2)no1` (configuration not stated) was tested, and the XC50 was 836 nM.
Work on `O=[N+]([O-])c1ccccc1C=NN=c1c2c([nH]c3ccccc13)CCCC2` yielded an XC50 of 311 nM.
Work on `CCC(CC)C(CC(=O)NC(C)(C)CCc1ccccc1OC)Nc1ccc(C#N)c2ccccc12` (configuration not stated) yielded an XC50 of 796 nM.
`Cc1[nH]c(C)c(-c2ccc(-c3ccc(Cl)cc3)nc2)c(=O)c1Br` showed an XC50 of 113 nM.
With `OC1(CNCc2ccccc2)CCN(CCc2c[nH]c3ccc(F)cc23)CC1` the XC50 was 710 nM.
For `CCN1CCN(c2cc(C)c3cc(NC(=O)c4ccc(OC)c([N+](=O)[O-])c4)ccc3n2)CC1`, the XC50 was 553 nM.
With `CN1CCN(c2cc(NC(=O)Nc3cccc(Cl)c3Cl)ccc2Cl)CC1` the XC50 was 734 nM.
With `CC(=NNC(S)=NCc1ccco1)c1ccccn1` the XC50 was 254 nM.
Work on `CCN(CC)CCNC(=O)c1ccc(N/C=C2\C(=O)Nc3ccc(S(=O)(=O)Cc4c(Cl)cccc4Cl)cc32)cc1` yielded an XC50 of 840 nM.
Compound `COCC(=O)N(Cc1cccc(-c2ccc(CNCCc3ccccc3)cc2)c1)C1CCN(Cc2ccccc2)CC1` has an XC50 of 1100 nM.
In the case of `COc1ccc2c(=O)ccn(CCN3CCC(NCc4ccc5c(n4)NC(=O)CS5)CC3)c2c1`, the XC50 is reported as 233 nM.
With `CCN(CC)CCNC(=O)c1ccc(NC(=O)c2cn(-c3ccccc3)nc2-c2cccs2)cc1` the XC50 was 258 nM.
Compound `CC1(CCN2CCC(c3c[nH]c4cnccc34)CC2)CCCc2c(Br)cccc2C1=O` (configuration not stated) has an XC50 of 195 nM.
For `CN(c1cc(NC(=O)c2ccc(F)cc2)ccn1)C1CCN(Cc2cccc(C#N)c2)CC1`, the XC50 was 831 nM.
`CCNC[C@H]1CCCN1CCOc1ccc(-n2cnc3cc(-c4ccc(Cl)cc4)sc3c2=O)cc1OC` gave an XC50 of 808 nM.
`Cc1cc(OCCN2CCCCC2)ccc1NC(=O)c1cccc2c(=O)n(Cc3ccc(Cl)cc3)cnc12` gave an XC50 of 1060 nM.
`CCOc1ccc(NC(=O)c2ccc(NCCCN3CC(C)CC(C)C3)c([N+](=O)[O-])c2)cc1` (configuration not stated) gave an XC50 of 705 nM.
With `CCN(CC)CCN(CCN(CC)CC)c1ccc2c(c1)Sc1c(Cl)ccc(Cl)c1S2` the XC50 was 876 nM.
For `CC(=O)OC[C@H]1O[C@@H](C#Cc2ccccc2)[C@H](OC(C)=O)[C@@H](OC(C)=O)[C@@H]1OC(C)=O`, the XC50 was 283 nM.
`FC(F)(F)c1ccc(CSc2ccc3nnc(-c4ccccn4)n3n2)cc1` gave an XC50 of 817 nM.
In the case of `O=C(NCCCCN1CCC(c2cccc3ccccc23)CC1)c1ccc(NC(=O)c2ccc(Cl)cc2)cc1`, the XC50 is reported as 784 nM.
`C[C@H](Cc1ccc(OCCCCCCCOc2ccc(C[C@@H](C)NC[C@H](O)c3cccc(Cl)c3)cc2)cc1)NC[C@H](O)c1cccc(Cl)c1` showed an XC50 of 189 nM.
For `Cn1cncc1-c1ccc2ncnc(Nc3ccc4c(cnn4Cc4ccccc4)c3)c2c1`, the XC50 was 180 nM.
`COc1ccc(CCN(C)CCCOc2ccc(NC(=O)c3cccc4c(=O)c5ccccc5[nH]c34)cc2)cc1OC` gave an XC50 of 912 nM.
In the case of `CCC/C=C/c1c(CNCCCNc2cc(=O)c3ccccc3[nH]2)sc(CC)c1Br`, the XC50 is reported as 889 nM.
`CC1(C)NC(N)=NC(=N)N1OCCc1cccc2ccccc12` showed an XC50 of 3.2 nM.
`CCC[C@@H]1CCN[C@H]([C@H](O)c2ccnc3ccc(OC)cc23)C1` gave an XC50 of 726 nM.
Work on `CN(C)CCOc1cc(NC(=O)Nc2cccc([N+](=O)[O-])c2)ccc1I` yielded an XC50 of 743 nM.
`C=CCn1c(SCC(=O)Nc2cc(Cl)ccc2Cl)nc2sc(C)cc2c1=O` gave an XC50 of 71.6 nM.
In the case of `N#Cc1ccc(N[C@@H](CC2CCCCC2)C(=O)NCc2cc(F)c(F)cc2F)c2ccccc12`, the XC50 is reported as 946 nM.
Work on `CCN1CCN(c2cc(C)c3cc(NC(=O)c4cncc(Br)c4)ccc3n2)CC1` yielded an XC50 of 656 nM.
For `CC(C)CCNCc1ccc(OCc2cccc(COc3ccc(CNCCC(C)C)cc3I)c2)c(I)c1`, the XC50 was 453 nM.
Compound `CN1CCCC(CN2CCN(Cc3ccc(-c4cccc(-c5nc6ccccc6[nH]5)c4)cc3)CC2)C1` (configuration not stated) has an XC50 of 132 nM.
With `O=C(NCCCCN1CCC(c2ccc3c(c2OCCOCCO)CCCC3)CC1)c1ccc(-c2ccc(C(F)(F)F)cc2)cc1` the XC50 was 275 nM.
Compound `CN1CCN(Cc2cccc(-c3ccc4c(Nc5ccc(F)cc5Cl)ccnc4c3)c2)CC1` has an XC50 of 156 nM.
`CCCCCCCN1CC[C@@H](CCCc2ccnc3ccc(OCCN4CCOCC4)cc23)[C@@H](CC)C1` was tested, and the XC50 was 909 nM.
In the case of `COc1ccc(-c2ccc(CNC(=O)c3ccc(C#N)cc3)c(F)c2)cc1CN1CCCN(C)CC1`, the XC50 is reported as 1140 nM.
`CCCc1cc(NCC)nc(Nc2ccc(C)cc2)n1` showed an XC50 of 894 nM.
Work on `N#Cc1ccc2[nH]cc(CN3CCC4(CC3)CN(CCNCc3ccccc3)C(=O)CO4)c2c1` yielded an XC50 of 758 nM.
Compound `N=c1c2c(n(Cc3ccc(Cl)cc3Cl)c3c1CCC3)CCCC2` has an XC50 of 350 nM.
In the case of `NCCCOc1cnc(-c2ccccc2)c2nc(-c3nonc3N)n(CCc3ccccc3)c12`, the XC50 is reported as 1270 nM.
In the case of `O=C(/C=C/c1ccc(Cl)c(Cl)c1)N(Cc1ccccc1)C1CCC(CN2CCC(c3c[nH]c4ccccc34)CC2)CC1` (configuration not stated), the XC50 is reported as 209 nM.
For `Nc1ncc(-c2cccc(CCN3CCOCC3)c2)cc1-c1nc2cc(Br)ccc2[nH]1`, the XC50 was 277 nM.
Work on `O=c1[nH]ccc2nc(N[C@@H]3CCCNC3)nc(Nc3ccc(S(=O)(=O)N4CCOCC4)cc3)c12` yielded an XC50 of 742 nM.
Work on `CC(C)c1ncc(-c2ccncc2)c(C2CCC(CNC(=O)c3cccnc3)CC2)n1` (configuration not stated) yielded an XC50 of 776 nM.
Compound `O=C(c1cccc(-c2noc(C(F)(F)F)n2)c1)N1CCN(c2nsc3ccccc23)CC1` has an XC50 of 145 nM.
In the case of `COc1ccc(CNCc2cccc(-c3cccc(-c4nc5cc(F)ccc5[nH]4)c3)c2)cc1`, the XC50 is reported as 300 nM.
In the case of `Cc1nc(C)c(CC(=O)Nc2cccc(-c3cccc(-c4nc5cccc(C)c5[nH]4)c3)c2)s1`, the XC50 is reported as 755 nM.
Compound `Nc1ncc(-c2ccsc2)c2ccc(-c3cc(NCc4ccccc4)ncn3)cc12` has an XC50 of 861 nM.
`CC(CN1CCN(C)CC1)C(=O)Nc1cccc(-c2ccc(-c3nc4ccccc4[nH]3)s2)c1` (configuration not stated) showed an XC50 of 632 nM.
For `N#Cc1ccc2[nH]cc(-c3cn4cc(SC5CCCC5)ccc4n3)c2c1`, the XC50 was 942 nM.
